Measurements from US20250213573A1, “PHARMACEUTICAL COMPOSITION COMPRISING JAK INHIBITOR, PREPARATION METHOD THEREFOR AND USE THEREOF” (BEIJING MAXINOVEL PHARMACEUTICALS CO., LTD., priority 2022, published 2025).

Experiment: Saturation solubility test of the compound of formula I in different solvents
Format: physicochemical
Conditions: thermodynamic from solid
Excerpt: Example 1: Saturation Solubility Test of the Compound of Formula I in Different Solvents

## CCS(=O)(=O)N1CC(C(CC#N)n2cc(-c3nc(Nc4cnn(C)c4)nc4ccsc34)cn2)C1 (centres unmarked) [Compound of formula I]
Aqueous buffer, saturation solubility in pH 2 phosphate buffer
  solubility: 16 µg/mL
Aqueous buffer, saturation solubility in pH 4 phosphate buffer
  solubility: 1 µg/mL
Aqueous buffer, saturation solubility in pH 6 phosphate buffer
  solubility: 1 µg/mL
Aqueous buffer, saturation solubility in pH 8 phosphate buffer
  solubility: 1 µg/mL
Oil or lipid, saturation solubility in Corn oil
  solubility: 14 µg/mL
Oil or lipid, saturation solubility in Medium chain triglycerides
  solubility: 75 µg/mL
Oil or lipid, saturation solubility in Oleic acid
  solubility: 230 µg/mL
Oil or lipid, saturation solubility in Olive oil
  solubility: 14 µg/mL
Oil or lipid, saturation solubility in Soybean oil
  solubility: 18 µg/mL
Organic solvent or mixture, saturation solubility in Anhydrous ethanol
  solubility: 240 µg/mL
Organic solvent or mixture, saturation solubility in Diethylene glycol monoethyl ether
  solubility: 14000 µg/mL
Organic solvent or mixture, saturation solubility in Dimethyl sulfoxide
  solubility: 302000 µg/mL
Organic solvent or mixture, saturation solubility in Ethyl acetate
  solubility: 2340 µg/mL
Organic solvent or mixture, saturation solubility in Glycerol
  solubility: 70 µg/mL
Organic solvent or mixture, saturation solubility in Polyethylene glycol 400
  solubility: 26600 µg/mL
Organic solvent or mixture, saturation solubility in Propylene glycol
  solubility: 990 µg/mL
Saturation solubility in Pure water
  solubility: 1 µg/mL
